Measured values reported in article PMC7857147 (Biochemistry, 2019).

Legend:
PhDph2 = PhDph2 (Pyrococcus horikoshii, UniProt O58832, R289A); assay: HPLC of SAM cleavage to MTA; format: biochemical; conditions: 60 uM SAM, 1 mM dithionite, pH 7.4, 65 °C, 10 min, no EF-2, anaerobic
crystal structure = target: the molecule itself; assay: crystal structure

Sequence of PhDph2 (O58832 whole entry R289A): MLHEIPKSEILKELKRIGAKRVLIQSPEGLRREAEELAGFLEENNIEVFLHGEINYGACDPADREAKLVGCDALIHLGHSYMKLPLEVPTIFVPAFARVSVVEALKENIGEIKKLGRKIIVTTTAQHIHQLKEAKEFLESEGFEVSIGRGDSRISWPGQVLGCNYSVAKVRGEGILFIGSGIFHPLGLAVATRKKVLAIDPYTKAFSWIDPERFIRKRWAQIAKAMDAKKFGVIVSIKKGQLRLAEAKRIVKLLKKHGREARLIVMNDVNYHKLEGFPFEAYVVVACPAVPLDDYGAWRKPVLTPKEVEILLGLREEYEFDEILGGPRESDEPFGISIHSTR

Molecule | HPLC of SAM cleavage to MTA (PhDph2) | stoichiometry N (crystal structure)
C[S+](CC[C@H](N)C(=O)O)C[C@H]1O[C@@H](n2cnc3c(N)ncnc32)[C@H](O)[C@@H]1O (some centres unmarked) [SAM] | the R289A mutant still had SAM cleavage activity | –
Methanobrevibacter smithii Dph2 (enzyme, UniProt A5UMY5 1-334, looked up) MSMYNMDLDKVIRKINKKGARTVGLQFPEGLKMQAVKIAKAIESQTPATVIISGDPCFGACDVSDYKMKGSVDLIVHYGHTPLPLKYEVPTLFIEAFSNIDVKKDLEKCLEKLEDYSKIALVTTTQHLHLLNEIKDYLEDNGKEVVLGSSKNTKKGQVLGCNFSSIKNLDAEVYLFIGSGNFHPLGIYLFTKSPVLALDPYNSEIRDISAFADRILRIRFARITKAREAEKWGIIVSSKEGQYRMKLAKEIKKILEDNKMEAYIIMADNINPDILLPYMELDAFVVSACPRIAIDDSQMYKKPLLTPQELEIVLNKRQWENYQLDEILFHERYK | – | 2
